Data as given in ChEMBL document CHEMBL6182831, “Thiazole-fused androstenone and ethisterone derivatives: potent β- and γ-actin cytoskeleton inhibitors to treat melanoma tumors” (RSC Med Chem, 2025).
Active and inactive are the calls of the source. The rule behind the calls is not given here.

Experiments:
LOX IMVI [1] = test: Upregulation of PARVB mRNA expression in human LOX IMVI cells at 2 uM measured for 2 hrs by qPCR analysis; type: functional, cell-based
SK-MEL-28 [2] = test: Inhibition of cell adhesion in human SK-MEL-28 cells assessed as reduction in number of adherent cells incubated for 1.5 hrs; type: functional, cell-based
SK-MEL-28 [3] = test: Cytotoxicity against human SK-MEL-28 cells assessed as inhibition of cell growth incubated for 24 hrs by resazurin staining based analysis; type: functional; settings: SK-MEL-28, 24 h
SK-MEL-28 [4] = test: Effect on PARVB level in human SK-MEL-28 cells at 2 uM measured after 24 hrs by Western blot analysis; type: functional, cell-based
SK-MEL-28 [5] = test: Inhibition of cell migration in human SK-MEL-28 cells at 1.2 uM incubated for 24 hrs by wound healing assay; type: functional, cell-based
B16-F10 [6] = test: Inhibition of colony formation in mouse B16-F10 cells at 3 uM incubated for 6 days by crystal violet staining based analysis; type: functional; settings: B16-F10, 144 h, time 6 day
[7] = Toxicity in C57BL/6 mouse assessed as change in total bilirubin level at 40 mg/kg, ip administered once daily and measured up to 20 days; type: organism-based; settings: in vivo, 480 h, time < 20 day
SK-MEL-28 [8] = test: Effect on ACTB level in human SK-MEL-28 cells at 2 uM measured after 24 hrs by Western blot analysis; type: functional, cell-based
[9] = Toxicity in C57BL/6 mouse assessed as change in body weight at 40 mg/kg, ip administered once daily and measured up to 20 days; type: organism-based; settings: in vivo, 480 h, time < 20 day
B16-F10 [10] = test: Induction of apoptosis in mouse B16-F10 cells at 8 uM measured for 24 hrs by Annexin V FITC/PI staining based flow cytometry analysis; type: functional, cell-based
B16-F10 [11] = test: Cytotoxicity against mouse B16-F10 cells assessed as inhibition of cell growth incubated for 24 hrs by resazurin staining based analysis; type: functional; settings: B16-F10, 24 h
[12] = Toxicity in C57BL/6 mouse assessed as change in BUN level at 40 mg/kg, ip administered once daily and measured up to 20 days; type: organism-based; settings: in vivo, 480 h, time < 20 day
SK-MEL-28 [13] = test: Effect on ACTB mRNA expression in human SK-MEL-28 cells at 2 uM measured after 24 hrs by qRT-PCR analysis; type: functional, cell-based
B16-F10 [14] = test: Antitumor activity against mouse B16-F10 cells implanted in C57BL/6 mouse assessed as inhibition of tumor growth at 40 mg/kg, ip administered once daily from 6 to 9 days and every alternate days till 18; type: functional, organism-based; settings: time 13.0 day
SK-MEL-28 [15] = test: Effect on ACTG1 mRNA expression in human SK-MEL-28 cells at 2 uM measured after 24 hrs by qRT-PCR analysis; type: functional, cell-based
SK-MEL-28 [16] = test: Downregulation of ACTB level in human SK-MEL-28 cells at 2 uM measured for 24 hrs by qRT-PCR analysis; type: functional, cell-based
[17] = Toxicity in C57BL/6 mouse assessed as change in ALP level at 40 mg/kg, ip administered once daily and measured up to 20 days; type: organism-based; settings: in vivo, 480 h, time < 20 day
B16-F10 [18] = test: Inhibition of cell adhesion in mouse B16-F10 cells at 2.5 uM incubated for 1.5 hrs; type: functional, cell-based
B16-F10 [19] = test: Inhibition of colony formation in mouse B16-F10 cells at 6 uM incubated for 6 days by crystal violet staining based analysis; type: functional; settings: B16-F10, 144 h, time 6 day
LOX IMVI [20] = test: Cytotoxicity against human LOX IMVI cells assessed as inhibition of cell growth incubated for 24 hrs by resazurin staining based analysis; type: functional
[21] = Toxicity in C57BL/6 mouse assessed as change in ALT level at 40 mg/kg, ip administered once daily and measured up to 20 days; type: organism-based; settings: in vivo, 480 h, time < 20 day
SK-MEL-28 [22] = test: Effect on ACTG1 level in human SK-MEL-28 cells at 2 uM measured after 24 hrs by Western blot analysis; type: functional, cell-based
[23] = Toxicity in C57BL/6 mouse assessed as animal survival at 40 mg/kg, ip administered once daily from 6 to 9 days and every alternate days till 18; type: organism-based; settings: in vivo, time 13 day
SK-MEL-28 [24] = test: Inhibition of cell adhesion in human SK-MEL-28 cells at 2.5 uM incubated for 1.5 hrs; type: functional, cell-based
[25] = Toxicity in C57BL/6 mouse assessed as animal survival at 40 mg/kg, ip administered once daily from 6 to 9 days and every alternate days till 19; type: organism-based; settings: in vivo, time 14 day
SK-MEL-5 = test: Cytotoxicity against human SK-MEL-5 cells assessed as inhibition of cell growth incubated for 24 hrs by resazurin staining based analysis; type: functional; settings: SK-MEL-5, 24 h
SK-MEL-28 [26] = test: Induction of cell cycle arrest in human SK-MEL-28 cells assessed as accumulation of cells at G2/M phase at 3 uM incubated for 24 hrs by PI staining based flow cytometry analysis; type: functional
B16-F10 [27] = test: Antitumor activity against mouse B16-F10 cells implanted in C57BL/6 mouse assessed as reduction of tumor weight at 40 mg/kg, ip administered once daily from 6 to 12 days and every alternate days till 18; type: functional, organism-based; settings: time 13.0 day
B16-F10 [28] = test: Induction of cell cycle arrest in mouse B16-F10 cells assessed as accumulation of cells at G2/M phase at 3 uM incubated for 24 hrs by PI staining based flow cytometry analysis; type: functional
[29] = Toxicity in C57BL/6 mouse assessed as change in amylase level at 40 mg/kg, ip administered once daily and measured up to 20 days; type: organism-based; settings: in vivo, 480 h, time < 20 day
SK-MEL-25 = test: Cytotoxicity against human SK-MEL-25 cells assessed as inhibition of cell growth incubated for 24 hrs by resazurin staining based analysis; type: functional; settings: SK-MEL-25, 24 h
[30] = Toxicity in C57BL/6 mouse assessed as change in creatinine level at 40 mg/kg, ip administered once daily and measured up to 20 days; type: organism-based; settings: in vivo, 480 h, time < 20 day
B16-F10 [31] = test: Antitumor activity against mouse B16-F10 cells implanted in C57BL/6 mouse assessed as reduction of tumor weight at 40 mg/kg, ip administered once daily from 6 to 9 days and every alternate days till 18; type: functional, organism-based; settings: time 13.0 day
B16-F10 [32] = test: Inhibition of cell adhesion in mouse B16-F10 cells assessed as reduction in number of adherent cells incubated for 1.5 hrs; type: functional, cell-based
SK-MEL-28 [33] = test: Upregulation of PARVB mRNA expression in human SK-MEL-28 cells at 2 uM measured for 2 hrs by qPCR analysis; type: functional, cell-based
B16-F10 [34] = test: Inhibition of cell migration in mouse B16-F10 cells at 2 uM incubated for 24 hrs by wound healing assay; type: functional, cell-based
[35] = Toxicity in C57BL/6 mouse assessed as change in albumin level at 40 mg/kg, ip administered once daily and measured up to 20 days; type: organism-based; settings: in vivo, 480 h, time < 20 day
SK-MEL-28 [36] = test: Inhibition of colony formation in human SK-MEL-28 cells at 6 uM incubated for 6 days by crystal violet staining based analysis; type: functional; settings: SK-MEL-28, 144 h, time 6 day
SK-MEL-28 [37] = test: Inhibition of cell migration in human SK-MEL-28 cells at 1 uM incubated for 24 hrs by wound healing assay; type: functional, cell-based
SK-MEL-28 [38] = test: Inhibition of colony formation in human SK-MEL-28 cells at 3 uM incubated for 6 days by crystal violet staining based analysis; type: functional; settings: SK-MEL-28, 144 h, time 6 day
SK-MEL-28 [39] = test: Inhibition of colony formation in human SK-MEL-28 cells at 3 uM incubated for 8 days by crystal violet staining based analysis; type: functional; settings: SK-MEL-28, 192 h, time 8 day
B16-F10 [40] = test: Inhibition of cell adhesion in mouse B16-F10 cells at 1.5 uM incubated for 1.5 hrs; type: functional, cell-based
SK-MEL-28 [41] = test: Inhibition of cell adhesion in human SK-MEL-28 cells at 1.5 uM incubated for 1.5 hrs; type: functional, cell-based
SK-MEL-28 [42] = test: Inhibition of colony formation in human SK-MEL-28 cells at 6 uM incubated for 8 days by crystal violet staining based analysis; type: functional; settings: SK-MEL-28, 192 h, time 8 day

Structure (SMILES) | inhibition (SK-MEL-28 [2]) | IC50 (SK-MEL-28 [3]) [µM] | inhibition at 3 µM (B16-F10 [6]) [%] | Activity [7] | Activity [9] | Activity (B16-F10 [10]) | IC50 (B16-F10 [11]) [µM] | Activity [12] | TGI (B16-F10 [14]) | Activity (SK-MEL-28 [16]) | Activity [17] | inhibition at 6 µM (B16-F10 [19]) [%] | IC50 (LOX IMVI [20]) [µM] | Activity [21] | survival at 312 h [23] [%] | survival at 336 h [25] [%] | IC50 (SK-MEL-5) [µM] | Activity (SK-MEL-28 [26]) | Activity (B16-F10 [27]) | IC50 (SK-MEL-25) [µM] | further results
C#C[C@]1(O)CC[C@H]2[C@@H]3CC=C4c5sc(-c6ccc(O)c(O)c6)nc5CC[C@]4(C)[C@H]3CC[C@@]21C | Active | 3.6 | 100 | Non-toxic | Non-toxic | Active | 2.6 | Non-toxic | Active | Active | Non-toxic | 100 | 4.4 | Non-toxic | ~80 | 80 | 3.7 | Active | Active | 2.5 | Activity (LOX IMVI [1]): Active; Activity (SK-MEL-28 [4]): Active; inhibition (SK-MEL-28 [5]): Active; Activity (SK-MEL-28 [8]): Active; Activity (SK-MEL-28 [13]): Active; Activity (SK-MEL-28 [15]): Active; inhibition (B16-F10 [18]): Active; Activity (SK-MEL-28 [22]): Active; inhibition (SK-MEL-28 [24]): Active; Activity (B16-F10 [28]): Active; Activity [29]: Non-toxic; Activity [30]: Non-toxic; Activity (B16-F10 [31]): Active; inhibition (B16-F10 [32]): Active; Activity (SK-MEL-28 [33]): Active; inhibition (B16-F10 [34]): Active; Activity [35]: Non-toxic
C#C[C@]1(O)CC[C@H]2[C@@H]3CC=C4c5sc(Nc6ccc(F)cc6F)nc5CC[C@]4(C)[C@H]3CC[C@@]21C | Active | 1.8 | 100 | – | – | Active | 2.5 | – | Active | Active | – | 100 | 1.6 | – | – | – | 1.9 | Active | – | 2.4 | inhibition at 6 µM (SK-MEL-28 [36]): 100%; inhibition (SK-MEL-28 [37]): Active; inhibition at 3 µM (SK-MEL-28 [38]): 100%; inhibition at 3 µM (SK-MEL-28 [39]): 100%; inhibition (B16-F10 [40]): Active; inhibition (SK-MEL-28 [41]): Active; inhibition at 6 µM (SK-MEL-28 [42]): 100%; Activity (B16-F10 [31]): Active; inhibition (B16-F10 [32]): Active; inhibition (B16-F10 [34]): Active
C#C[C@]1(O)CC[C@H]2[C@@H]3CC=C4c5sc(Nc6ccccc6)nc5CC[C@]4(C)[C@H]3CC[C@@]21C | – | 1.7 | – | Non-toxic | Non-toxic | – | 2.7 | Non-toxic | – | – | Non-toxic | – | 1.6 | Non-toxic | ~80 | 10 | 2.4 | – | Active | 1.6 | Activity [29]: Non-toxic; Activity [30]: Non-toxic; Activity [35]: Non-toxic
